Measured values as given in patent US20080305186A1, “Method and Composition for the Treatment of Cardiac Hypertrophy” (BOARD OF REGENTS, THE UNIVERSITY OF TEXAS SYSTEM, priority 2007, published 2008).

Tested on: cardiac gene expression
Test: Microarray analysis of cardiac gene expression (GeneChip Mouse Genome 430 2.0)
Assay type: in vivo, mice
Method: Microarray Sample Preparation and Analysis. Animal hearts were rapidly removed, and the atria and right ventricles were cut and immediately plunged into TRIzol Reagent (Life Technologies). Total RNA was isolated following the manufacturer's instructions, purified by phenol-chloroform extraction and then ethanol precipitation, and 20 μg further processed for microarray analysis. Briefly, cDNA synthesis, in vitro transcription, and labeling and fragmentation to produce the oligonucleotide probes were performed as instructed by the GeneChip manufacturer (Affymetrix). The probes were first hybridized to a test array (Affymetrix) and then to the GeneChip Mouse Genome 430 2.0 Array, using the GeneChip Hybridization Oven 640. The chips were washed in a GeneChip Fluidics Station 450 (Affymetrix), and the results were visualized with a GeneChip G7 scanner (Affymetrix). RMA normalization, pairwise comparisons, Student's t test and Benjamini and Hochberg correction were subsequently performed using GeneSifter (VizX Labs, Seattle, Wash.) and Spotfire DecisionSite 8.3 (Spotfire, Inc., Somerville, Mass.).
Effects on Gene Expression Profile. […] One mouse heart was used for each array, and was performed in triplicate, generating a total of 12 arrays. GeneSifter was used to perform RMA normalization, pairwise comparisons of averaged signal intensity values, and Student's t-test with Benjamini and Hochberg correction, and Spotfire was used to perform pairwise comparisons. […] Additionally, genes that were altered between any two N or cardiac hypertrophy samples were removed, as these alterations most likely represented normal variations between mice.

[1] = CH vs drug-treated isoproterenol mice
[2] = heart, drug + isoproterenol vs isoproterenol only
[3] = mouse heart, vs isoproterenol only (CH), CH vs normal 2.1
[4] = mouse heart, vs isoproterenol only (CH), CH vs normal 2.2
[5] = mouse heart, vs isoproterenol only (CH), CH vs normal 2.6
[6] = mouse heart, vs isoproterenol only (CH), CH vs normal 2.7
[7] = mouse heart, vs isoproterenol only (CH), CH vs normal 2.9
[8] = mouse heart, vs isoproterenol only (CH), CH vs normal 3.2
[9] = mouse heart, vs isoproterenol only (CH), CH vs normal 3.3
[10] = mouse heart, vs isoproterenol only (CH), CH vs normal 3.7
[11] = mouse heart, vs isoproterenol only (CH), CH vs normal 4.9

## NC(=O)N1c2ccccc2C=Cc2ccccc21 [carbamazepine]
[1]
  Number of Altered Genes, Average FC (1.5-fold): 709
  Number of Altered Genes, Average FC (2-fold): 1
  Number of Altered Genes, Minus disease variability: 1
  Number of Altered Genes, Minus natural variability: 1
  Number of Altered Genes, Reproducible: 1
  Number of Altered Genes, Student's t test: 306
CH vs drug-treated isoproterenol mice, Benjamini and Hochberg
  Number of Altered Genes, Correction: 1
CH vs drug-treated isoproterenol mice, of 779 genes altered N vs CH, altered in the reverse direction
  Number of Altered Genes, Disease-specific: 1
[2]
  Cytokine inducible SH2-containing protein 3 (Socs3), Microarray FC: −2.4 FC
  GATA binding protein 4 (Gata4), Microarray FC: 2.1 FC
  Lipocalin 2 (Lcn2), Microarray FC: −1.6 FC
  NADPH oxidase 4 (Nox4), Microarray FC: −1.9 FC
  Oncostatin receptor (Osmr), Microarray FC: −1.7 FC
  SET and MYND domain containing 1 (Smyd1), Microarray FC: 1.7 FC
  Serine protease inhibitor 2-2 (Spi2-2) (Serpin3n), Microarray FC: −2.3 FC
Mouse heart, vs isoproterenol only (CH), CH vs normal 1.6
  FC Procollagen, type IV, alpha 1 (Col4a1), AW536690: −1.8 fold
Mouse heart, vs isoproterenol only (CH), CH vs normal 1.8
  FC Fatty acid binding protein 4, adipocyte (Fabp4), BC002148: −1.6 fold
[3]
  FC Adenosine deaminase (Ada), NM_007398: −2.2 fold
  FC EST, AV032095: −1.6 fold
  FC EST, BE630073: −1.6 fold
[4]
  FC Amine oxidase, copper containing 3 (Aoc3), NM_009675: −1.8 fold
  FC CD14 antigen (CD14), NM_009841: −1.6 fold
  FC Flavin containing monooxygenase 1 (Fmo1), BC011229: −1.6 fold
  FC cDNA, BG075321: −1.6 fold
Mouse heart, vs isoproterenol only (CH), CH vs normal 2.3
  FC A disintegrin-like and metallopeptidase (reprolysin type) with thrombospondin (ADAMTS)-like 2 (Adamtsl2), AK020831: −1.6 fold
Mouse heart, vs isoproterenol only (CH), CH vs normal 2.4
  FC Purine-nucleoside phosphorylase (Pnp), BC003788: −1.7 fold
Mouse heart, vs isoproterenol only (CH), CH vs normal 2.5
  FC ESTs, AI447357: −1.9 fold
[5]
  FC Dipeptidase 1 (Dpep1), NM_007876: −1.6 fold
  FC Fc fragment of IgG, low affinity IIIa, receptor (Fcrl3), BC027310: −1.6 fold
  FC cDNA, AW552579: −1.7 fold
[6]
  FC G7e protein, NM_033075: −1.6 fold
  FC Mitogen activated protein kinase kinase kinase 8 (Map3k8), NM_007746: −1.7 fold
  FC cDNA, BC019553: −2.2 fold
[7]
  FC Decorin (Dcn), AV321547: −1.6 fold
  FC Glycoprotein (transmembrane) nmb (Gpnmb), NM_053110: −1.5 fold
Mouse heart, vs isoproterenol only (CH), CH vs normal 3.1
  FC C-type lectin domain family 1, member a (Clec1a), BB035924: −1.6 fold
[8]
  FC CUB and zona pellucida-like domains 1 (Cuzd1), NM_008411: −1.5 fold
  FC G7e protein, BC027314: −2.2 fold
  FC Serine (or cysteine) peptidase inhibitor, clade A, member 3G (Serpina3g), BC002065: −1.7 fold
  FC cDNA, BG297038: −2.9 fold
[9]
  FC Pyruvate dehydrogenase kinase 4 (Pdk4), NM_013743: 1.7 fold
  FC cDNA, AK012898: −2.0 fold
Mouse heart, vs isoproterenol only (CH), CH vs normal 3.4
  FC TRAF2 and K interacting kinase (Tnik), AI117633: −1.7 fold
Mouse heart, vs isoproterenol only (CH), CH vs normal 3.5
  FC Interleukin-1 receptor-associated kinase 3 (Irak3), AV228493: −1.6 fold
[10]
  FC Mcf.2 transforming sequee-like (Mcf21), AV293368: −1.5 fold
  FC cDNA, BE956710: −1.7 fold
Mouse heart, vs isoproterenol only (CH), CH vs normal 3.8
  FC Lipopolysaccharide binding protein (Lbp), NM_008489: −1.8 fold
Mouse heart, vs isoproterenol only (CH), CH vs normal 3.9
  FC Nuclear factor of kappa light polypeptide gene enhaer in B-cells inhibitor, zeta (Nfkbiz), NM_030612: −1.6 fold
Mouse heart, vs isoproterenol only (CH), CH vs normal 4.1
  FC Colony stimulating factor 2 receptor, beta 2, low-affinity (granulocyte-macrophage) (Csf2rb2), NM_007781: −1.8 fold
Mouse heart, vs isoproterenol only (CH), CH vs normal 4.3
  FC NADPH oxidase 4 (Nox4), BC021378: −1.9 fold
Mouse heart, vs isoproterenol only (CH), CH vs normal 4.4
  FC Calcium-sensitive chloride conductae protein-1 (Clca1), AF047838: −1.8 fold
Mouse heart, vs isoproterenol only (CH), CH vs normal 4.5
  FC cDNA, AK008807: −1.7 fold
Mouse heart, vs isoproterenol only (CH), CH vs normal 4.7
  FC Serum amyloid A 3 (Saa3), NM_011315: −2.0 fold
[11]
  FC Caer related gene-liver 1 (CRG-L1), AF282864: −1.5 fold
  FC Calcium/calmodulin-dependent protein kinase II, beta (Camk2b), BG862223: −2.8 fold
Mouse heart, vs isoproterenol only (CH), CH vs normal 5.1
  FC Oostatin receptor (Osmr), NM_011019: −1.7 fold
Mouse heart, vs isoproterenol only (CH), CH vs normal 6.0
  FC Cytokine inducible SH2-containing protein 3 (Socs3), BB241535: −2.3 fold
